Laboratory results published in article PMC2783692 (Analytical biochemistry, 2009).

Tests used:
[1] = molecular target: cannabinoid (CB1) receptor; test: PWR ligand binding to native rat trigeminal ganglion membrane fragments; details: Figure 4, negative spectral shifts
chromatophore membranes = test: PWR ligand binding to deposited chromatophore membrane fragments; design: species or system Rhodopseudomonas sphaeroides
[2] = PWR ligand binding to bare sensor surface; details: bare sensor versus chromatophore membrane fragments

CCCCCCC(C)(C)c1ccc([C@@H]2C[C@H](O)CC[C@H]2CCCO)c(O)c1 [CP 55,940]
KD values compared with radioligand binding and lipid bilayer PWR studies [1]: excellent agreement

Cc1c(C(=O)c2cccc3ccccc23)c2cccc3c2n1[C@H](CN1CCOCC1)CO3 [WIN 55,212–2]
KD values compared with radioligand binding and lipid bilayer PWR studies [1]: excellent agreement

bovine serum albumin: control protein replacing cyt c2
changes in PWR spectral position (binding) (chromatophore membranes; control protein replacing cyt c2, up to 100 μM protein): did not observe any measurable changes

B1: cyt c2: Reduced Rhodobacter capsulatus cytochrome (cyt) c2, isolated and purified (protein, UniProt P00094 22-137, looked up)
Cytochrome c2: GDAAKGEKEFNKCKTCHSIIAPDGTEIVKGAKTGPNLYGVVGRTAGTYPEFKYKDSIVALGASGFAWTEEDIATYVKDPGAFLKEKLDDKKAKTGMAFKLAKGGEDVAAYLASVVK
modifications: reduced
Kd (chromatophore membranes; read-out: apparent binding constant (KD), PWR, reduced cyt c2, hyperbolic fit, minimum of three separate experiments): 2500 nM
binding weaker on bare sensor than on chromatophore fragments [2]: approximately 10 fold
